Data on seven compounds can be found in patent US20260070887A1 (Shenzhen Zhongge Biological Technology Co., Ltd., priority 2022, published 2026).

Read-outs that look alike come from different tables or passages of the source.

One series deals with hERG channel (Homo sapiens (Human), UniProt Q12809). Put plainly: hERG manual patch clamp test. It is filed as cell-based. The method, then:
The cells used in this test were the HEK293 cell line transfected with hERG cDNA and stably expressing the hERG channel (#60187, supplied by BPS, passages P3-P23 for experimental studies). The cells were cultured in a medium containing the following components: MEM medium containing 10% (v/v) inactivated fetal calf serum, 1 mM sodium pyruvate, 500 μg/ml geneticin, 0.1 mM non-essential amino acids, and 100 U/m1 penicillin/streptomycin. HEK293 hERG cells were grown in a culture dish containing the above-mentioned medium, cultured in a 37° C., 5% CO2 incubator, and passaged approximately three times per week, with the cell fusion rate between 40% and 80%. 24 to 48 hours prior to electrophysiological experiments, HEK293 hERG cells were transferred to 0.05 mg/ml PDL-pretreated slides, seeded at a density of 1×10^4 cells per well in a 48-well plate, and grown in the same medium and under the same culture conditions. The density of HEK293 hERG cells on each circular slide needs to reach the requirement that most cells are independent and individual. The extracellular fluid components used in the hERG assay were as follows (mM): 145 NaCl, 4 KCl, 2 CaCl2, 1 MgCl2, 10 glucose, and 10 HEPES (pH adjusted to 7.40 with NaOH). The intracellular fluid components were as follows (mM): 130 KCl, 2 MgCl2, 5 EGTA, 10 HEPES and 5 Na2ATP (pH adjusted to 7.25 with KOH). […] Prior to the experiment, the compound was first serially diluted with DMSO to prepare stock solutions at 10, 3, 1, 0.3, and 0.1 mM, which were then further diluted with extracellular fluid to achieve the final test concentrations (in μM). The final concentration of DMSO in compound solutions at various concentrations was between 0.1% and 0.3%. All compound solutions are routinely sonicated for 5 to 10 min and shaken sufficiently to ensure complete dissolution of the compound, and all test solutions are mixed well by rotation for at least 10 min.
Electrophysiological tests were performed using a manual patch clamp system (HEKA EPC-10 signal amplifier and digital conversion system, HEKA Electronics, Germany) for the recording of whole cell currents. The specific test method was described as follows: Circular slides with […] hERG cells growing on the surface were placed in an electrophysiological recording chamber under an inverted microscope. The recording chamber was continuously perfused with extracellular fluid (at approximately 1 mL/min). The conventional whole-cell patch-clamp technique was employed for current recordings throughout the experiment. If not specified, the experiments were carried out at normal room temperature (about 25° C.). The cells were clamped at −80 mV. The cell clamp voltage was depolarized to +30 mV to activate the hERG potassium channel, and then clamped to −50 mV after 5 seconds to eliminate inactivation and produce a tail current. The peak tail current value was used as a value for the magnitude of the hERG current. The potassium current of hERG recorded in the above steps was stabilized by continuous extracellular fluid perfusion in the recording chamber, and the drug to be tested was continuously perfused until the inhibitory effect of the drug on hERG currents had stabilized. The coincidence of the most recent three consecutive current recording traces was typically taken as the criteria for determining whether steady-state conditions were achieved.
Dose-response curves of the test compounds were plotted with % hERG inhibition rate as the y-axis and test compound concentration as the x-axis, to calculate the IC50 values.

The next series relates to OVCAR3 tumor. Put plainly: OVCAR3 human ovarian cancer subcutaneous transplant tumor model. Type of series: in vivo, mouse. Particulars: oral, QD, 28 days, balb/c nude mice. An excerpt:
• I. Experimental objective: evaluation of the pharmacological effects of the reference compounds and the compounds of the present disclosure in the OVCAR3 human ovarian cancer subcutaneous transplant tumor model. • II. Experimental material: experimental female balb/c nude mice, 6-8-week old or 18-20 g, provided by Vital River Laboratory Animal Technology Co., Ltd. • III. Experimental method: Experimental animals were housed within a specific pathogen-free animal barrier facility, and the experiment was started 3 days after the animals were acclimated. The human ovarian cancer OVCAR3 tumor cells were cultured in vitro as monolayers in RPMI 1640 complete medium (supplemented with a final concentration of 20% fetal bovine serum, 1% penicillin-streptomycin dual antibiotics, and 0.01 mg/ml insulin) at 37° C. in an atmosphere containing 5% CO2. The tumor cells were routinely passaged 2-3 times per week, and the cells in the exponential growth phase were collected and counted for tumor cell inoculation. 10×10^6 OVCAR3 tumor cells were resuspended in 0.1 m1 PBS and mixed with 0.1 m1 matrigel and then subcutaneously inoculated into the right flank of each mouse to establish tumors. When the mean tumor volume of the tumor-bearing mice grew to around 100 mm^3, the appropriate tumor-bearing mice were selected for randomization and the groups were set as: blank control groups, reference compound groups, and groups of compounds of the present disclosure. Vehicles were administered orally in the blank control group, and the corresponding compounds were administered orally in the other groups for 28 days. Tumor volumes and animal weights were monitored […], twice weekly. This experiment examined the inhibitory effect of the reference compound and the compound of the present disclosure on the growth of OVCAR3 human ovarian cancer cells by monitoring the size of the tumor volume of each group after administration of the compounds.

Setting [1] is: HEK293 cells stably expressing hERG, whole-cell patch clamp, read-out: hERG IC50.

Chain of hERG channel (Q12809 whole entry, the tested form may be a part): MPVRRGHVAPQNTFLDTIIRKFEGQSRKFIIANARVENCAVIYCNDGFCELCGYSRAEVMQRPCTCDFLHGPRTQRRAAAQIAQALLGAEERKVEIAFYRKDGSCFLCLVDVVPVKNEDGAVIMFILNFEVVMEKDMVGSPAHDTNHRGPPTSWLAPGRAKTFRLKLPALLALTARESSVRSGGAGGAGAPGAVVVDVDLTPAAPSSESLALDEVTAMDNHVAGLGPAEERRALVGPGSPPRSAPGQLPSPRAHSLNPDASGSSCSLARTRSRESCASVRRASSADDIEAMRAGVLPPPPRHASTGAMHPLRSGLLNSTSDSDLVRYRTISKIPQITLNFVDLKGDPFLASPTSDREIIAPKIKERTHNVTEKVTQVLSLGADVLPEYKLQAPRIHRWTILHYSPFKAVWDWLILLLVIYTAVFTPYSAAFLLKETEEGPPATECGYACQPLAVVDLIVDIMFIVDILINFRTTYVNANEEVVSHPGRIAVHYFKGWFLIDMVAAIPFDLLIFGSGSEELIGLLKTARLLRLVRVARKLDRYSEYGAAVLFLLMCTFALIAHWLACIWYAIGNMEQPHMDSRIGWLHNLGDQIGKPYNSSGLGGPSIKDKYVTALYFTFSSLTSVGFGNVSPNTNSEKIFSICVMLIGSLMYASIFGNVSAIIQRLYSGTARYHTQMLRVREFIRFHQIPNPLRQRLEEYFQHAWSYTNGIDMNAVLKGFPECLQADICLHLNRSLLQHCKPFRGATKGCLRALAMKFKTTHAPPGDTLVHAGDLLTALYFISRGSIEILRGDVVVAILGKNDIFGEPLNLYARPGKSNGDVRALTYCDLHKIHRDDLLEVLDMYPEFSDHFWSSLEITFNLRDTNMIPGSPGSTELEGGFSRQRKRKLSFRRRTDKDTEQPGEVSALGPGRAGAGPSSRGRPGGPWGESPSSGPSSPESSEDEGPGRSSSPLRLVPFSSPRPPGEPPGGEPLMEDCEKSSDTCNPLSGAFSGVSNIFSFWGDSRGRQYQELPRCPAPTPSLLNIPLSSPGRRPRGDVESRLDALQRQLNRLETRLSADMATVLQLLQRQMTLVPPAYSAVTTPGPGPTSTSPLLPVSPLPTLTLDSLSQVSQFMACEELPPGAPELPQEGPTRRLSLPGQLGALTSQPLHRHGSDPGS

What is called IC50 is the concentration that gives 50% inhibition. In the case of `O=C(Nc1cccc2c1cc1n2CCOC1)c1ccc(NS(=O)(=O)CCO)cc1N1CCC2(CC1)CC2` [Example 235, N-(3,4-dihydro-1H-[1, 4]oxazino[4,3-a]indol-9-yl)-4-(2-hydroxyethylsulfonamido)-2-(6-azaspiro[2.5]octan-6-yl)benzamide], at hERG channel (setting [1]), the IC50 was 9.84 µM. In the case of `O=C(Nc1cccc2c1cc1n2CCOC1)c1ccc(NS(=O)(=O)CCO)cc1N1CCC(=C(F)F)CC1` [Example 319, 2-(4-difluoromethylene)piperidin-1-yl-N-(3,4-dihydro-1H-[1,4]oxazino[4,3-a]indol-9-yl)-4-((2-hydroxyethyl)sulfonamide) benzamide], the 50% inhibitory concentration (IC50) on hERG channel (setting [1]) was above 10 µM. Still for that read-out and setting: to `CC1(C)Cn2c(cc3c(NC(=O)c4ccc(NS(=O)(=O)CCO)cc4N4CCC(=C(F)F)CC4)cccc32)CO1` [Example 370, 2-(4-(difluoromethylene)piperidin-1-yl)-N-(3,3-dimethyl-3,4-dihydro-1H-[1,4]oxazino[4,3-a]indol-9-yl)-4-((2-hydroxyethyl)sulfonamido)benzamide] belongs above 10 µM.

Regarding `CC1(C)Cn2c(cc3c(NC(=O)c4ccc(NS(=O)(=O)CCO)cc4N4CCC5(CC4)CC5)cccc32)CO1` [Example 371, N-(3,3-dimethyl-3,4-dihydro-1H-[1,4]oxazino[4,3-a]indol-9-yl)-4-(2-hydroxyethylsulfonamido)-2-(6-azaspiro[2.5]octan-6-yl)benzamide], the entries for the “inhibition rate on OVCAR3 tumor growth” value with OVCAR3 tumor (10 mg/kg) and in the series on OVCAR3 tumor (30 mg/kg) were 94%-98% and “about 110%”, respectively. Moreover, the IC50 on hERG channel (setting [1]) is above 10 µM. Turning to `COc1ccc(NC(=O)c2ccc(NS(=O)(=O)CCO)cc2N2CCC3(CC2)CC3)c2cc3n(c12)CC(C)(C)OC3` [Example 455, 4-((2-hydroxyethyl)sulfonamido)-N-(6-methoxy-3,3-dimethyl-3,4-dihydro-1H-[1,4]oxazinyl[4,3-a]indol-9-yl)-2-(6-azaspiro[2.5]oct-6-yl)benzamide], in the series on OVCAR3 tumor (10 mg/kg), the “inhibition rate on OVCAR3 tumor growth” value is listed as 94%-98%. On hERG channel, this compound returned an IC50 above 10 µM. `COc1ccc(NC(=O)c2ccc(NS(=O)(=O)CCO)cc2N2CCC(=C(F)F)CC2)c2cc3n(c12)CC(C)(C)OC3` [Example 465, 2-(4-(difluoromethylene)piperidin-1-yl)-4-((2-hydroxyethyl)sulfonamido)-N-(6-methoxy-3,3-dimethyl-3,4-dihydro-1H-[1,4]oxazinyl[4,3-a]indol-9-yl)benzamide]: in the series on OVCAR3 tumor (10 mg/kg), the “inhibition rate on OVCAR3 tumor growth” value was 60%-70%. Moreover, the IC50 at hERG channel (setting [1]) was above 10 µM. As to `CC1(C)Cn2c(cc3c(NC(=O)c4ccc(NS(=O)(=O)CCO)cc4N4CCC5(CC4)CC5)ccc(OC(F)F)c32)CO1` [Example 523], the IC50 on hERG channel (setting [1]) is above 10 µM.
